Like-named read-outs stand apart in the source and are kept apart here.
Key:
Assay in all cases: KINOMEscan Assay (DiscoverX)
Format in all cases: binding
[1] = molecular target: T1, JAK3(JH1DOMAIN-CATALYTIC) (Homo sapiens, UniProt P52333); settings: read-out: % DMSO Ctrl
T1 construct: JH1DOMAIN; purchased DiscoverX

IRAK3 = molecular target: T2, IRAK3 (Homo sapiens, UniProt Q9Y616); settings: read-out: % DMSO Ctrl
T2 construct: purchased DiscoverX
T2 sequence (Q9Y616 1-596): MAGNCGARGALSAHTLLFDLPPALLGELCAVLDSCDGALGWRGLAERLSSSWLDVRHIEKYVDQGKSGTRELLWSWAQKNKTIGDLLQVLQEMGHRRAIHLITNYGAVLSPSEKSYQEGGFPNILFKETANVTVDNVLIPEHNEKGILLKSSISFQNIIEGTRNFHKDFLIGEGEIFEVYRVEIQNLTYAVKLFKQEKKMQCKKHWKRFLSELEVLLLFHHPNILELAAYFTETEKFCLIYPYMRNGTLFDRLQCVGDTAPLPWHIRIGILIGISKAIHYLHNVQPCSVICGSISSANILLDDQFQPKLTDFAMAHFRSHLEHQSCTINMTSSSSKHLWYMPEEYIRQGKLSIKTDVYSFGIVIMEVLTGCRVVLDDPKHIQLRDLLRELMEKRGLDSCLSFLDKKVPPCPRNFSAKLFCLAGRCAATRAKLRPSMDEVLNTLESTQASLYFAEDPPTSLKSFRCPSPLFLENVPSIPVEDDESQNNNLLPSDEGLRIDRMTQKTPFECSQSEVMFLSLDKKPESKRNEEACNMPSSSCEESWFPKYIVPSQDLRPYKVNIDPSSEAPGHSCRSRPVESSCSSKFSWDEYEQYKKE

DYRK2 = molecular target: T3, DYRK2 (Homo sapiens, UniProt Q92630); settings: read-out: % DMSO Ctrl
T3 construct: purchased DiscoverX
T3 sequence (Q92630 1-601): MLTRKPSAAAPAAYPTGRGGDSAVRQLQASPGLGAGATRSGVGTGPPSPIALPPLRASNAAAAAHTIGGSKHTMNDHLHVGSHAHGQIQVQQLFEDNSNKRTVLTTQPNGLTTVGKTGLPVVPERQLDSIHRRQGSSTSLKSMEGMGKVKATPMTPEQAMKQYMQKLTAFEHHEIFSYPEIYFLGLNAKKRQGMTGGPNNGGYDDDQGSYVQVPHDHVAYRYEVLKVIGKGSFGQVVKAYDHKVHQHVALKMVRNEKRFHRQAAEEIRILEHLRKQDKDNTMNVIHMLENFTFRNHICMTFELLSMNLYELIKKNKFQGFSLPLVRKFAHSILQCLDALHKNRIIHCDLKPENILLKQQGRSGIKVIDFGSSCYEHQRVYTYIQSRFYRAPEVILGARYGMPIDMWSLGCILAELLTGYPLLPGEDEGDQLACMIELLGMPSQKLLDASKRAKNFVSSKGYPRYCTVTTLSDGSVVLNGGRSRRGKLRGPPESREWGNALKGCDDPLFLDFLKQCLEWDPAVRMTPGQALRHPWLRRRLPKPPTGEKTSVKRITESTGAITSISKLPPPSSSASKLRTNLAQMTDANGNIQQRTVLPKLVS

HIPK3 = molecular target: T4, HIPK3 (Homo sapiens, UniProt Q9H422); settings: read-out: % DMSO Ctrl
T4 construct: purchased DiscoverX

PDGFRA = molecular target: T5, PDGFRA (Homo sapiens, UniProt P16234); settings: read-out: % DMSO Ctrl
T5 construct: purchased DiscoverX

LRRK2(G2019S) = molecular target: T6, LRRK2(G2019S) (Homo sapiens, UniProt Q5S007, G2019S); settings: read-out: % DMSO Ctrl
T6 construct: purchased DiscoverX

IRAK4 = molecular target: T7, IRAK4 (Homo sapiens, UniProt Q9NWZ3); settings: read-out: % DMSO Ctrl
T7 construct: purchased DiscoverX
T7 sequence (Q9NWZ3 1-460): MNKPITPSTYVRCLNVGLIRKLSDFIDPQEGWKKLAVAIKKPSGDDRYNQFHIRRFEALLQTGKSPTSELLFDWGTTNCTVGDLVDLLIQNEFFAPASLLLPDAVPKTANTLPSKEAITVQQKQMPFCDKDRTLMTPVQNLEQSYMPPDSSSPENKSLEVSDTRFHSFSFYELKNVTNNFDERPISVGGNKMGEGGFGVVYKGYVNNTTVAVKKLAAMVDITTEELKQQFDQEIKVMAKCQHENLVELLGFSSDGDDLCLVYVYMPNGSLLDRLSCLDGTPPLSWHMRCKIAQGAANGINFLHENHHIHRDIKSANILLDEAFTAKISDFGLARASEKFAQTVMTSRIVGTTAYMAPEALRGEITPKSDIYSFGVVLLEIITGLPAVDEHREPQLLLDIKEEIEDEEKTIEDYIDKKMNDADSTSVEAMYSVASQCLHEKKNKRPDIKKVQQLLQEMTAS

[2] = molecular target: T8, TYK2(JH1domain-catalytic) (Homo sapiens, UniProt P29597); settings: read-out: % DMSO Ctrl
T8 construct: JH1domain; purchased DiscoverX
T8 sequence (P29597 897-1176 limits assumed): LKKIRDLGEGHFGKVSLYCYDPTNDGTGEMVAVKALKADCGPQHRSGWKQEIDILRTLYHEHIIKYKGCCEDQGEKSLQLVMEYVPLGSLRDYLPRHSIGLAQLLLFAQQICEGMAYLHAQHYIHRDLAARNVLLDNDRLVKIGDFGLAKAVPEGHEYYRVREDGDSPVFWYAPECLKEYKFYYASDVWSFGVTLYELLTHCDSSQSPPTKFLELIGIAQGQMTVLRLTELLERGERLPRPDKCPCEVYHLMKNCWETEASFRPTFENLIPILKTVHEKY

KIT = molecular target: T9, KIT (Homo sapiens, UniProt P10721); settings: read-out: % DMSO Ctrl
T9 construct: purchased DiscoverX

PIKFYVE = molecular target: T10, PIKFYVE (Homo sapiens, UniProt Q9Y2I7); settings: read-out: % DMSO Ctrl
T10 construct: purchased DiscoverX

FLT3(ITD) = FLT3(ITD) mutant; 10 μM
KIT(V559D,V654A) = molecular target: T11, KIT(V559D,V654A) (Homo sapiens, UniProt P10721, V559D/V654A); settings: read-out: % DMSO Ctrl
T11 construct: purchased DiscoverX

EGFR(G719C) = molecular target: T12, EGFR(G719C) (Homo sapiens, UniProt P00533, G719C); settings: read-out: % DMSO Ctrl
T12 construct: purchased DiscoverX
T12 sequence (P00533 25-1210 G719C): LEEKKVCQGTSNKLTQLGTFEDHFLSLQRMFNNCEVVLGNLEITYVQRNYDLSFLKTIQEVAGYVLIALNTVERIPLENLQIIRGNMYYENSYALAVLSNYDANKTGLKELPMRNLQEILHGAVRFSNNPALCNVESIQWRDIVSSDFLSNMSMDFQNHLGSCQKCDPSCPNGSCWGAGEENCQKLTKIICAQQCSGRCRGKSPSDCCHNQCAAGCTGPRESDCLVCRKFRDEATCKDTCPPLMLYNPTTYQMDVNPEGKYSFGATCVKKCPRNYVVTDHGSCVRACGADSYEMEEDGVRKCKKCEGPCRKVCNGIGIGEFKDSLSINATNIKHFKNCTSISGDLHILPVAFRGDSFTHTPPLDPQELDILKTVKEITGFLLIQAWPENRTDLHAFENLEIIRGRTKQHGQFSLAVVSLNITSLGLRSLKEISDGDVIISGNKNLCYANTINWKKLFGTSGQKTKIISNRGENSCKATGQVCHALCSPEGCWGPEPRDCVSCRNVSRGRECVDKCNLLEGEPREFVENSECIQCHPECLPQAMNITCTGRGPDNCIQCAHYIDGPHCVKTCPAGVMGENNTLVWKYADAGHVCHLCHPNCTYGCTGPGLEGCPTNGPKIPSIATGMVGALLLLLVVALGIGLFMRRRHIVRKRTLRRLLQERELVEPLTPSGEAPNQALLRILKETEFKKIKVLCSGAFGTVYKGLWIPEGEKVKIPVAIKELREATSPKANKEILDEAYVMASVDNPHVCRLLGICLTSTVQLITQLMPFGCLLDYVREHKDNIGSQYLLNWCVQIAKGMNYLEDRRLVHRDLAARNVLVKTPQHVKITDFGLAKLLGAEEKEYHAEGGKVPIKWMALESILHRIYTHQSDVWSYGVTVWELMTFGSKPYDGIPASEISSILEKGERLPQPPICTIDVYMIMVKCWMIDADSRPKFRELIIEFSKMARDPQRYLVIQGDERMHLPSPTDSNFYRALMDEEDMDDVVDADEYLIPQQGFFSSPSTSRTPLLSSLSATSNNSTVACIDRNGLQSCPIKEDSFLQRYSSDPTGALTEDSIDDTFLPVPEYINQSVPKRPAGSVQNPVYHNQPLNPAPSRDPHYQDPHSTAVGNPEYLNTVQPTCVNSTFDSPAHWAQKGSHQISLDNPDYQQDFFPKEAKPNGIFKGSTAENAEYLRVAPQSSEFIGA

T10 sequence (Q9Y2I7 whole entry): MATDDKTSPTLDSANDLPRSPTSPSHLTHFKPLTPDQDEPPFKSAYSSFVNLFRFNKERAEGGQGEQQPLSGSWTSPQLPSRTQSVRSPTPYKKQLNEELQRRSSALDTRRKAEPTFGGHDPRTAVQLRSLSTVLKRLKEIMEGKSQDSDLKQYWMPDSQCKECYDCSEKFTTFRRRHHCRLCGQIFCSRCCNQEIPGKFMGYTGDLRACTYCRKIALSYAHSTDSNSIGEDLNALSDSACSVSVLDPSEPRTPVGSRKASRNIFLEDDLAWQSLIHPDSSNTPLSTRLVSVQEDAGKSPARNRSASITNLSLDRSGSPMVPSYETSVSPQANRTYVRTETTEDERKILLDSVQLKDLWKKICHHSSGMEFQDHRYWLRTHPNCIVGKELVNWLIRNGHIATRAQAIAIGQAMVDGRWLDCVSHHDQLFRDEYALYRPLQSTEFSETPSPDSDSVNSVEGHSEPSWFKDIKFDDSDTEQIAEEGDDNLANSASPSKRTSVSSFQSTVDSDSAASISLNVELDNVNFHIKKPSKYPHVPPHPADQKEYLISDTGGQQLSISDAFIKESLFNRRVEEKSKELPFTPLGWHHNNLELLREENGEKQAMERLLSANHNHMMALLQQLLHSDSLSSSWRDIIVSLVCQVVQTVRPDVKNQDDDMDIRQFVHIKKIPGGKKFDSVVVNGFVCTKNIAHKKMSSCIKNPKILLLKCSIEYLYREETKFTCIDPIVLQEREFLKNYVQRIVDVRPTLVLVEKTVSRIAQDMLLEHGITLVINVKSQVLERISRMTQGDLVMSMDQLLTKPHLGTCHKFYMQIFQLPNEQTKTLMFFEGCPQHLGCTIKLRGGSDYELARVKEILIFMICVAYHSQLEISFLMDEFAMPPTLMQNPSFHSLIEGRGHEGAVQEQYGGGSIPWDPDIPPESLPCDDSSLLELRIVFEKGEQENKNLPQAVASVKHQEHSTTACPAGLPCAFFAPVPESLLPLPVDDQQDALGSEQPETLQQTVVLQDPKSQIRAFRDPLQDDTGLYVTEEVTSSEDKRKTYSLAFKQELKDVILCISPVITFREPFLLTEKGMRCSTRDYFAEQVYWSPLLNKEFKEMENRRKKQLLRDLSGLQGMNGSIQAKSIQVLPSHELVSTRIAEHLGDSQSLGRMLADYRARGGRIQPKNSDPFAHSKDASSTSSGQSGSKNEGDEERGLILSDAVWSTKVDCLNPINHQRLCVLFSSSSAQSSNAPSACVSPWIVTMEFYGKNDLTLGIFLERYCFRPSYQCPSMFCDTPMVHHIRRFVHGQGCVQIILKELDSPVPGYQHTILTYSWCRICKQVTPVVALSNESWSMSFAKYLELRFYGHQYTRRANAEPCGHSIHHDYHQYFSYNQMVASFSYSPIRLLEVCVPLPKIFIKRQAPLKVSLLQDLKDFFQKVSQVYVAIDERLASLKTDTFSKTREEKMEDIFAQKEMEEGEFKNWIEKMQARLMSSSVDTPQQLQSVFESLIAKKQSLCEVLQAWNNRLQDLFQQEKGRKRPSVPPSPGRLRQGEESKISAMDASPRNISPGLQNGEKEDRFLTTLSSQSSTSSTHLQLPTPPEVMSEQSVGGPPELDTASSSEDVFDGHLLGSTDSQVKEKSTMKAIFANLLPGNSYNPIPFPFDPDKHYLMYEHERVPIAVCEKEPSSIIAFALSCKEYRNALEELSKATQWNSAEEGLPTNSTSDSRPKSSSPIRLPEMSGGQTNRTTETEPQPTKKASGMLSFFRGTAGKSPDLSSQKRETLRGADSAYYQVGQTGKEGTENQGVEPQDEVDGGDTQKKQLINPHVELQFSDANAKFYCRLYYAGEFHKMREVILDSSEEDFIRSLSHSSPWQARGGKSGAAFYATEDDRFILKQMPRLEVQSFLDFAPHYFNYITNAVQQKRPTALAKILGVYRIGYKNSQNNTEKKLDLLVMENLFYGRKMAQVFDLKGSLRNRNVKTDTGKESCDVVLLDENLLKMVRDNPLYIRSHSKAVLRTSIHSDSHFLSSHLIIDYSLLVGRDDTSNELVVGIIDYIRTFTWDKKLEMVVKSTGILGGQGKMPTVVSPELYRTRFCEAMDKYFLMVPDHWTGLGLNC
T11 sequence (P10721 26-976 V559D/V654A): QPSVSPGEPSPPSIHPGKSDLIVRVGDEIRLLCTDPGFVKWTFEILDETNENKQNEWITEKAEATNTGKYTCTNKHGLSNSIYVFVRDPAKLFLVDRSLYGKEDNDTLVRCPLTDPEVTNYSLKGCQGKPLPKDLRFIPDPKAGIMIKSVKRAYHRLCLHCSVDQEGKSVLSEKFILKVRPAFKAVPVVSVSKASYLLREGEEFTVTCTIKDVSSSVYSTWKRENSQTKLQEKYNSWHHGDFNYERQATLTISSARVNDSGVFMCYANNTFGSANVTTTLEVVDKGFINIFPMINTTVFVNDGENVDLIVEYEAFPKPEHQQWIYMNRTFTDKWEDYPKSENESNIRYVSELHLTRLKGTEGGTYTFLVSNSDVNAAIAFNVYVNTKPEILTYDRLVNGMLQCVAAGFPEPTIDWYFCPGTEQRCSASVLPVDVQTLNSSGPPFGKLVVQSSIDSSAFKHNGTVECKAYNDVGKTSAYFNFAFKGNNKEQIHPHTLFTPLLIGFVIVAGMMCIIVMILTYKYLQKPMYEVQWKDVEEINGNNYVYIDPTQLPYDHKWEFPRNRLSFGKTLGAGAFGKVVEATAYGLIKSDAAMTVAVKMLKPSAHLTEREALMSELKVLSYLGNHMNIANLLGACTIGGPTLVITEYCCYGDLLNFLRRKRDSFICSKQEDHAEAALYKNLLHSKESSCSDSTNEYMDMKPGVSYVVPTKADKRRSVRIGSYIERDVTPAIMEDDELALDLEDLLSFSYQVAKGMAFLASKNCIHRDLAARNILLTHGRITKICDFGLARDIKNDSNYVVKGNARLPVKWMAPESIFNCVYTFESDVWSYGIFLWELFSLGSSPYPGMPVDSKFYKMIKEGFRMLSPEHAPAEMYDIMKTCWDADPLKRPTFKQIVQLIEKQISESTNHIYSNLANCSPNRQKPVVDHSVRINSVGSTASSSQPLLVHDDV
T9 sequence (P10721 26-976): as the sequence (P10721 26-976 V559D/V654A) above, with D534V, A629V counted along it
T1 sequence (P52333 822-1111 limits assumed): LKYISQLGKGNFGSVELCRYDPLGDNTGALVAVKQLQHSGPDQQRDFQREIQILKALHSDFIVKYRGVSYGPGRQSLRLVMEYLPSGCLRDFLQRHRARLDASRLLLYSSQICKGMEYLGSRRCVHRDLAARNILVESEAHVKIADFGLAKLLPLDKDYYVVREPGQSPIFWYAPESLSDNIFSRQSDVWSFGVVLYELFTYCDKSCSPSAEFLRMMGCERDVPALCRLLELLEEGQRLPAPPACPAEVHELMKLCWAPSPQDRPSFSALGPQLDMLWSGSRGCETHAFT

SMILES	remaining binding at 10 µM [1]	remaining binding at 10 µM (IRAK3)	remaining binding at 10 µM (DYRK2)	remaining binding at 10 µM (HIPK3)	remaining binding at 10 µM ([1]; JAK3(JH1DOMAIN-[…]), 10 μM)	remaining binding at 10 µM (PDGFRA)	remaining binding at 10 µM (LRRK2(G2019S))	remaining binding at 10 µM (IRAK3; IRAK3, 10 μM)	remaining binding at 10 µM (IRAK4)	remaining binding at 10 µM [2]	remaining binding at 10 µM (KIT)	remaining binding at 10 µM (PIKFYVE)	% DMSO Ctrl (FLT3(ITD))	remaining binding at 10 µM (KIT(V559D,V654A))	remaining binding at 10 µM (EGFR(G719C))	further results
COc1ccc2c(c1)[nH]c1c(C)nccc12 [Harmine, reference compound]	61%	35%	3.2%	9.4%												
C#CCn1c2cc(OC)ccc2c2ccnc(C)c21 [Compound 20-23a, 3-(7-Methoxy-1-methyl-β-carbolin-9-yl)-propan-1-yne]			5.2%		100%	100%	100%	34%	6.4%	91%	83%	60%	61 % DMSO Ctrl	100%	92%	remaining binding at 10 µM (HIPK3; HIPK3, 10 μM): 4.5%
COc1ccc2c3ccnc(C)c3n(CCCc3noc(N)n3)c2c1 [Compound 20-13, 3-(3-(7-Methoxy-1-methyl-β-carbolin-9-yl)propyl)-5-amino-1,2,4-oxadiazole]	87%	62%	9.1%	6.2%		83%	5.1%		90%	17%	100%	3.2%	72 % DMSO Ctrl	98%	93%	
COc1ccc2c(c1)[nH]c1c(C)nc(CO)cc12 [Compound 2-8, (1-Methyl-7-methoxy-9H-pyrido[3,4-b]indol-3-yl)methanol]					96%			70%					87 % DMSO Ctrl			remaining binding at 10 µM (PDGFRA; PDGFRA, 10 μM): 100%; remaining binding at 10 µM (LRRK2(G2019S); LRRK2(G2019S) mutant, 10 μM): 98%; remaining binding at 10 µM (IRAK4; IRAK4, 10 μM): 70%; remaining binding at 10 µM ([2]; TYK2(JH1domain-catalytic), 10 μM): 64%; remaining binding at 10 µM (KIT; KIT, 10 μM): 98%; remaining binding at 10 µM (PIKFYVE; PIKFYVE, 10 μM): 88%; remaining binding at 10 µM (KIT(V559D,V654A); KIT(V559D,V654A) mutant, 10 μM): 100%; remaining binding at 10 µM (EGFR(G719C); EGFR(G719C) mutant, 10 μM): 98%

From patent US12421232B2, “Kinase inhibitor compounds and compositions and methods of use” (ICAHN SCHOOL OF MEDICINE AT MOUNT SINAI, priority 2018, dated 2025)
